Experimental data from ChEMBL document CHEMBL5726493, “Compositions and methods of modulating short-chain dehydrogenase activity” (2017).
pIC50: −log10 of the molar value.

Target: T1, 15-hydroxyprostaglandin dehydrogenase [NAD(+)] (Homo sapiens, UniProt P15428)
T1 sequence (P15428 whole entry): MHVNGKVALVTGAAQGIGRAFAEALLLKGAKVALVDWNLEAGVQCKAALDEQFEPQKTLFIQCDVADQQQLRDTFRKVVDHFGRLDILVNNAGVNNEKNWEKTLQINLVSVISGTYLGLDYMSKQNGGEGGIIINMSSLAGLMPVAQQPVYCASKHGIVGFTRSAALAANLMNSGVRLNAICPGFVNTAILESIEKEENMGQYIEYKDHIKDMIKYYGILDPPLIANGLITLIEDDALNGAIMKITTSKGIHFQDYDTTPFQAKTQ
Test: In Vitro Assay: Each compound for inhibiting enzymatic activity of recombinant 15-PGDH in an in vitro assay.

How did the pIC50 turn out when CCCC[S+]([O-])c1sc2nc(-c3nccs3)cc(-c3cccc(C(=O)N4CCN(C)CC4)c3)c2c1N (configuration not stated) was run?
Its pIC50 is 7.44.

With CCCC[S+]([O-])c1sc2nc(-c3nccs3)cc(-c3cccc(C(=O)O)c3)c2c1N (configuration not stated) as the compound, how does the pIC50 read?
The pIC50 was 7.69.

CCCC[S+]([O-])c1sc2nc(-c3nccs3)cc(-c3ccc(CN(C)C)cc3)c2c1N (configuration not stated) was tested. Which pIC50 did it give?
Its pIC50 is 8.24.

With C=CCNC(=O)c1cccc(-c2cc(-c3nccs3)nc3sc([S+]([O-])CCCC)c(N)c23)c1 (configuration not stated) as the compound, how does the pIC50 read?
The pIC50 was 8.60.

CCCC[S+]([O-])c1sc2nc(-c3nccs3)cc(-c3ccc(OCC(=O)OC)cc3)c2c1N (configuration not stated) was tested. Which pIC50 did it give?
Its pIC50 is 8.07.

With CCCC[S+]([O-])c1sc2nc(-c3nccs3)cc(-c3ccc(OCC(=O)O)cc3)c2c1N (configuration not stated) as the compound, how does the pIC50 read?
The pIC50 was 8.57.

CCCC[S+]([O-])c1sc2nc(-c3nccs3)cc(-c3cccc(C(=O)NCCN(C)C)c3)c2c1N (configuration not stated) was tested. Which pIC50 did it give?
The pIC50 was 7.71.
